Values quoted from earlier work in US8637310B2, “Use of a rock inhibitor to sustain primary human keratinocytes in a proliferative state” (The United States of America, as represented by the …, priority 2008, dated 2014).

Test system: airway epithelial cells
Conditions: Moore et al. 2004; cited from earlier work

## O=S(=O)(c1cccc2cnccc12)N1CCCNCC1 [HA 1077]
  effect on airway epithelial cells: induces membrane ruffling, loss of actin stress fibers and apoptosis
